The source of these data is ChEMBL document CHEMBL1201862, “PubChem BioAssay data set” (2004).

Test systems include HCT-15; SNB-75; UO-31; NCI-H522; LOX IMVI; HOP-62; Malme-3M; SNB-19; SF-295; HOP-92; NCI-H460; SF-268; OVCAR-3; KM12; EKVX; OVCAR-4; A498; TK-10; DU-145; 786-0.
Common to all, as to experiment: NCI tumour cell line growth inhibition, 48 h

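1) Cells in 96-well plates. 2) Compound, 48 h, 5 concentrations. 3) Linear interpolation between surrounding doses. 4) Unreached endpoint = highest concentration. The concentration for 50% growth inhibition is given as GI50.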 Activity calls are given as the source filed them. No stated cut-off is given here; in the data, active = GI50 up to about 1.1 µM and inactive = higher. Where only a bound is given, the exact number is not on record here.

On to `Nc1nc(Cl)nc2c1ncn2C1CC(O)C(CO)O1` (stereo unspecified), for which the GI50 in the assay on HCT-15 was 45.9 µM; in the assay with SNB-75 it was 36.6 µM (inactive); in the assay on UO-31, 0.701 µM (active); in the assay on NCI-H522, 25.5 µM (inactive); in the assay with LOX IMVI, 3.62 µM (inactive); with HOP-62 it was 0.33 µM (active). In addition, the GI50 was > 100 µM (inactive) in the assay with Malme-3M; 1.47 µM (inactive) in the assay on SNB-19; 67.9 µM (inactive) with SF-295; 1.3 µM (inactive) with HOP-92; 7.28 µM (inactive) with NCI-H460; 26.4 µM (inactive) with SF-268. The GI50 in the assay with OVCAR-3 was 25.8 µM (inactive); in the assay with KM12 it was > 100 µM (inactive); in the assay on EKVX, 1.21 µM (inactive); with OVCAR-4, > 100 µM (inactive); with A498, 2.95 µM (inactive).
For `COC(=O)C(Cc1ccc2c(c1)OCO2)(NC(=O)c1ccccc1)P(=O)(OC)OC` (stereo unspecified), the GI50 with HCT-15 is > 100 µM; in the assay on SNB-75 it was > 100 µM (inactive); with UO-31, > 100 µM (inactive); with NCI-H522, > 100 µM (inactive); in the assay on LOX IMVI, > 100 µM (inactive); with HOP-62, > 100 µM (inactive). Moreover, the GI50 in the assay on SNB-19, in the assay on SF-295, in the assay on HOP-92, in the assay on NCI-H460, in the assay on SF-268 and with KM12 was > 100 µM (inactive) in each case. The GI50 in the assay on EKVX, in the assay with TK-10, in the assay on OVCAR-4 and in the assay on A498 was > 100 µM (inactive) throughout.
For `O=Cc1ccccc1CCn1c(=O)c2cc3c(=O)n(CCc4ccccc4C=O)c(=O)c3cc2c1=O`, the GI50 is > 100 µM in the assay on HCT-15; > 100 µM (inactive) with SNB-75; > 100 µM (inactive) in the assay on UO-31; > 100 µM (inactive) with NCI-H522; > 100 µM (inactive) with LOX IMVI; > 100 µM (inactive) in the assay with Malme-3M. Also, the GI50 in the assay with SNB-19, in the assay with SF-295, in the assay with NCI-H460, in the assay with SF-268, in the assay on OVCAR-3 and in the assay with KM12 was > 100 µM (inactive) in each case. The GI50 with TK-10, in the assay with OVCAR-4 and with A498 was > 100 µM (inactive) each time.
Consider `C=C1C(=O)O[C@@H]2[C@H](O)[C@@H](C)[C@@H]3C=CC(=O)[C@@]3(C)[C@@H](OC(=O)/C(C)=C/C)[C@H]12`, for which the GI50 is 0.377 µM in the assay on HCT-15; 2.03 µM (inactive) in the assay on SNB-75; 5.31 µM (inactive) in the assay on UO-31; 0.0889 µM (active) in the assay with NCI-H522; 0.869 µM (active) in the assay with LOX IMVI; 7.46 µM (inactive) in the assay on HOP-62. The GI50 with Malme-3M was 0.914 µM (active); with SNB-19, 2.77 µM (inactive); in the assay on SF-295, 3.75 µM (inactive); with HOP-92, 0.548 µM (active); in the assay on NCI-H460, 0.412 µM (active); in the assay with SF-268, 0.437 µM (active). In addition, the GI50 is 0.719 µM (active) with OVCAR-3; 1.01 µM (active) in the assay with KM12; 0.774 µM (active) in the assay with EKVX; 1.35 µM (inactive) in the assay with OVCAR-4; 1.32 µM (inactive) in the assay with A498.
For `CC(C)(C)c1ccc2c(c1)OP1(Oc3c(Cl)cc(Cl)c4cccnc34)(O2)Oc2ccc(C(C)(C)C)cc2O1`, the GI50 was 4.53 µM in the assay on HCT-15; 15.5 µM (inactive) in the assay with SNB-75; 5.08 µM (inactive) with UO-31; 2.9 µM (inactive) with NCI-H522; 5.55 µM (inactive) with LOX IMVI; 5.01 µM (inactive) in the assay on HOP-62. Moreover, the GI50 in the assay on Malme-3M is 10.8 µM (inactive); with SNB-19 it was 7.53 µM (inactive); in the assay on SF-295, 5.42 µM (inactive); with HOP-92, 2.4 µM (inactive); with NCI-H460, 3.8 µM (inactive); with SF-268, 7.16 µM (inactive). Further, the GI50 in the assay with OVCAR-3 is 4.78 µM (inactive); with KM12, 6.87 µM (inactive); in the assay on EKVX it was 5.16 µM (inactive); with OVCAR-4, 10.3 µM (inactive); with A498, 14.1 µM (inactive).
Take `COc1cc2c(cc1O)N=C[C@@H]1CC[C@@H](O)N1C2=O.COc1cc2c(cc1O)N=C[C@@H]1CC[C@H](O)N1C2=O`: the GI50 in the assay on HCT-15 was 0.74 µM; in the assay on SNB-75, 1.02 µM (active); in the assay on UO-31, 0.579 µM (active); in the assay with NCI-H522, 0.159 µM (active); in the assay on LOX IMVI it was 0.473 µM (active); in the assay with HOP-62 it was 0.631 µM (active). Further, the GI50 in the assay with Malme-3M was 0.597 µM (active); in the assay on SNB-19, 1.4 µM (inactive); with SF-295, 0.984 µM (active); in the assay with HOP-92, 0.752 µM (active); in the assay on NCI-H460, 2.54 µM (inactive); with SF-268 it was 0.735 µM (active). In addition, the GI50 with OVCAR-3 is 0.561 µM (active); with KM12, 1.38 µM (inactive); in the assay on EKVX, 1.87 µM (inactive); in the assay with OVCAR-4, 3.55 µM (inactive); in the assay with A498, 0.43 µM (active).
In the case of `CO[C@H]1SC[C@H](OC(C)=O)[C@H](OC(C)=O)[C@H]1OC(C)=O`, the GI50 is > 100 µM in the assay on HCT-15; > 100 µM (inactive) with UO-31; > 100 µM (inactive) in the assay with NCI-H522; > 100 µM (inactive) in the assay on LOX IMVI; > 100 µM (inactive) with HOP-62; > 100 µM (inactive) in the assay on Malme-3M. Further, the GI50 with SNB-19, in the assay with DU-145, in the assay with SF-295, in the assay on NCI-H460, with SF-268 and in the assay on OVCAR-3 was > 100 µM (inactive) in each case. For the same compound, the GI50 in the assay on KM12, in the assay on EKVX, in the assay with TK-10, in the assay with 786-0 and with OVCAR-4 was > 100 µM (inactive) each time.
As to `O=S(=O)(N/N=C/c1ccc(Cl)cc1Cl)c1ccccc1`, the GI50 is > 100 µM in the assay on HCT-15; 83 µM (inactive) in the assay on SNB-75; > 100 µM (inactive) in the assay on UO-31; 97.9 µM (inactive) in the assay on LOX IMVI; > 100 µM (inactive) in the assay with HOP-62; > 100 µM (inactive) in the assay on Malme-3M. Also, the GI50 was > 100 µM (inactive) with SF-295; 34.8 µM (inactive) in the assay on HOP-92; 63.1 µM (inactive) with SF-268; 91.4 µM (inactive) in the assay on OVCAR-3; 51.2 µM (inactive) in the assay on KM12; > 100 µM (inactive) in the assay on EKVX. In addition, the GI50 in the assay on TK-10, in the assay with 786-0, in the assay on OVCAR-4 and in the assay with A498 was > 100 µM (inactive) in each case.
For the compound `C/C(CC(=O)Nc1ccccc1)=N\NC(N)=S`, the GI50 with SNB-75, in the assay with UO-31, in the assay with NCI-H522, in the assay with LOX IMVI, in the assay with HOP-62 and in the assay on Malme-3M was > 100 µM (inactive) in each case. Besides, the GI50 in the assay on SF-295, in the assay on HOP-92, with NCI-H460, in the assay with SF-268, in the assay on OVCAR-3 and in the assay on KM12 was > 100 µM (inactive) throughout. Moreover, the GI50 in the assay with EKVX, in the assay on TK-10 and with 786-0 was > 100 µM (inactive) throughout.
As for `Cc1cc(O)nc(NN2C(Cl)C(=O)C2c2cccc(Cl)c2)n1` (stereo unspecified), the GI50 with HCT-15 is 17.4 µM; in the assay with SNB-75, 20.8 µM (inactive); in the assay on UO-31, 24.2 µM (inactive); with LOX IMVI, 14.4 µM (inactive); in the assay with HOP-62, 27.1 µM (inactive); with SNB-19 it was 27.9 µM (inactive). In addition, the GI50 was 20.6 µM (inactive) in the assay with HOP-92; 18.4 µM (inactive) in the assay with NCI-H460; 18.5 µM (inactive) in the assay with SF-268; 12.5 µM (inactive) with OVCAR-3; 21.7 µM (inactive) in the assay with KM12; 36.6 µM (inactive) in the assay with EKVX. The GI50 in the assay on TK-10 is 36.1 µM (inactive); with OVCAR-4, 28.2 µM (inactive).
Regarding `CCCCCCCCCCCCSC(=S)c1c(C)[nH]n(CCCCCCCCCCCC)c1=O`, the GI50 with HCT-15 is 65.3 µM; in the assay with SNB-75 it was > 100 µM (inactive); in the assay with UO-31, 88.1 µM (inactive); with NCI-H522, 99.5 µM (inactive); with LOX IMVI it was > 100 µM (inactive); in the assay on HOP-62 it was > 100 µM (inactive). Moreover, the GI50 in the assay with Malme-3M was 34.6 µM (inactive); with SNB-19, > 100 µM (inactive); with SF-295, > 100 µM (inactive); with NCI-H460, 50.5 µM (inactive); in the assay on SF-268, 48.9 µM (inactive); in the assay with OVCAR-3 it was > 100 µM (inactive). Moreover, the GI50 in the assay on KM12 is > 100 µM (inactive); with EKVX, 27.5 µM (inactive); in the assay with OVCAR-4 it was > 100 µM (inactive); in the assay with A498, > 100 µM (inactive).
Turning to `COc1cc(CCc2ccncc2)cc(OC)c1OC`, the GI50 with HCT-15 was > 100 µM; in the assay with SNB-75, > 100 µM (inactive); with UO-31, > 100 µM (inactive); in the assay with NCI-H522, > 100 µM (inactive); in the assay with LOX IMVI, > 100 µM (inactive); with HOP-62, > 100 µM (inactive). The GI50 in the assay with Malme-3M, in the assay on SNB-19, with SF-295, in the assay with HOP-92, in the assay with NCI-H460 and in the assay on SF-268 was > 100 µM (inactive) in each case. Moreover, the GI50 in the assay on OVCAR-3, in the assay on KM12, in the assay on EKVX, in the assay with TK-10, in the assay on 786-0 and in the assay with OVCAR-4 was > 100 µM (inactive) throughout. Besides, in the assay with A498, the GI50 was > 100 µM (inactive).
